Values quoted from earlier work as cited in patent publication US7169818B2, “Lysophosphatidic acid receptor agonists and antagonists” (University of Virginia Patent Foundation, priority 2000, dated 2007).

Columns and labels:
Conditions in all cases: previously reported; cited from earlier work
human platelets = system: human platelets
human LPA3 = biological target: T1, human LPA3 (Homo sapiens, UniProt Q9UBY5); design: expressed in transfected cells; host or cells: HEK293T (transient)
T1 sequence (Q9UBY5 1-353): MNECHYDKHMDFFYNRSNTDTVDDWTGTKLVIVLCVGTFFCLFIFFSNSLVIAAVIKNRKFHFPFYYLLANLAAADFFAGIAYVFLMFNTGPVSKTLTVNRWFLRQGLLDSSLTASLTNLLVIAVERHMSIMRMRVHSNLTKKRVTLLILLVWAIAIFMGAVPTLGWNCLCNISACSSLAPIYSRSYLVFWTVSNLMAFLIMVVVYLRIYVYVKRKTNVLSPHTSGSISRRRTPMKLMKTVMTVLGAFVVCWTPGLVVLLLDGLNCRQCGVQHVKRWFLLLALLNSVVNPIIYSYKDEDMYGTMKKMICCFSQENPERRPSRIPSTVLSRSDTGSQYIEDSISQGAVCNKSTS

Xenopus laevis ooctyes = system: Xenopus laevis ooctyes
human LPA2 = human LPA2 (Homo sapiens, UniProt Q9HBW0); design: expressed in transfected cells; host or cells: HEK293T (transient)
Chain of human LPA2 (Q9HBW0 whole entry): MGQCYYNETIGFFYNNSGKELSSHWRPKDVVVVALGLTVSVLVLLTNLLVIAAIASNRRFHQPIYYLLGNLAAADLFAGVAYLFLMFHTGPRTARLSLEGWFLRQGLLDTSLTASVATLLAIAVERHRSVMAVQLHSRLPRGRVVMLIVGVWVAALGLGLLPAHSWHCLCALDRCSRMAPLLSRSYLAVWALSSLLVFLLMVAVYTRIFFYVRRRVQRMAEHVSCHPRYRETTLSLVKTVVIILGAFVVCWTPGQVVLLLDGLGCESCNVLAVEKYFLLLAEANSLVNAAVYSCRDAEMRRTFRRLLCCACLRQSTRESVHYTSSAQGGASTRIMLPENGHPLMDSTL

mouse LPA1 = mouse LPA1 (Mus musculus, UniProt P61793); design: expressed in transfected cells; host or cells: HEK293T (transient); for part of the results RH7777 membranes
Chain of mouse LPA1 (P61793 whole entry): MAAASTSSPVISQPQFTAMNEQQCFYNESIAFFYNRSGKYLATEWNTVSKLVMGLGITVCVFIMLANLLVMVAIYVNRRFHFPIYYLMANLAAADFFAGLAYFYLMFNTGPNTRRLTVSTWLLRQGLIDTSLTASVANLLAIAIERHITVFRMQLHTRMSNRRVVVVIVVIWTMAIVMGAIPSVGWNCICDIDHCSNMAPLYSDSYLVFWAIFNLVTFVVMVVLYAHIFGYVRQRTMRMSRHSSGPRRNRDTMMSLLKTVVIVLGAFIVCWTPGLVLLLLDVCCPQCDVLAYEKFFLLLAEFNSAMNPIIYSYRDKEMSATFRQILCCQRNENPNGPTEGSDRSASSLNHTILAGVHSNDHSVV

In the case of `CCCCCCCC/C=C\CCCCCCCC(=O)NCCOP(=O)(O)O` [NAEPA, N-oleoyl ethanolamide phosphoric acid], the “platelet aggregation (literature)” value (human platelets) is listed as “nearly indistinguishable from LPA”, the “activity at recombinant LPA3 relative to LPA (literature)” value (human LPA3) is listed as “distinctly less active than LPA” and the “oocyte depolarization (literature)” value (Xenopus laevis ooctyes) is listed as “distinctly less active than LPA”. For the same compound, the “GTP[γ35S] binding at LPA2 containing membranes relative to LPA (literature)” value (human LPA2) was “nearly indistinguishable from LPA” and the “GTP[γ35S] binding at LPA1 containing membranes relative to LPA (literature)” value (mouse LPA1) was “nearly indistinguishable from LPA”.
